Assay results published in patent US7074765B2, “Synthetic peptide analogs of Arg-Pro-Pro-Gly-Phe as selective inhibitors of thrombin and thrombin activation of protease activated receptors 1 and 4” (The Regents of the University of Michigan, priority 2003, dated 2006).
Where “and” joins values, the source holds several entries; their conditions need not be identical. Equal values may be shown once. Square brackets hold non-standard residues; d marks the D form. Ends that are not written are not given here. Oic = O=C(O)[C@@H]1C[C@@H]2CCCC[C@@H]2N1; Igl = N[C@H](C(=O)O)C1Cc2ccccc2C1; Hyp = O=C(O)[C@@H]1C[C@@H](O)CN1; 2Thi = N[C@@H](Cc1cccs1)C(=O)O

T1: RPPGF (Arg-Pro-Pro-Gly-Phe, SEQ ID NO:4)
T1 sequence: RPPGF

T2: recombinant protease activated receptor 1 extracellular domain (rPAR1EC) (Homo sapiens, UniProt P25116)
T2 construct: A portion of the extracellular domain of human PAR1 (Ala^26-Ser^99) (rPAR1EC) was expressed in Escherichia coli; His10-DDDDK (pET19b) (N); made in house; host or cells: E. coli BL21(DE3), pET19b
T2 sequence (P25116 26-99): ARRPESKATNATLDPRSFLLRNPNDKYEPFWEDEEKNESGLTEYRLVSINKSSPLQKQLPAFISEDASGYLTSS

T3: recombinant protease activated receptor 1 extracellular domain (rPAR1EC), human PAR1 Ala26-Ser99, His10-DDDDK fusion (human), P25116
T3 chain: T2 sequence (P25116 26-99)


Key:
[1] = test system: normal human citrated plasma; test: activated partial thromboplastin time (APTT); assay type: biochemical; settings: peptide at the concentration that inhibits platelet aggregation
Experimental: (§1) The influence of the various peptide formulations used in the present invention on established coagulation-based assays was determined. The activated partial thromboplastin time (APTT) is performed by mixing 0.05 ml normal human citrated plasma with 0.05 ml activated partial thromboplastin reagent purchased from Organon Teknika, Research Triangle Park, N.C. in the absence or presence of a peptide inhibitor. After incubation for 5 min at 37° C., the mixture is recalcified with 0.05 ml of 30 mM calcium chloride and the time to clot formation is measured in an Amelung KC4A instrument (Sigma Chemical Corp, St. Louis, Mo.) (Hasan et al. Thrombosis and Haemostasis. 82, 1182–1187 (1999)). The prothrombin time (PT) is performed by mixing 0.05 ml normal human citrated plasma with 0.05 ml Simplastin (Organon Teknika, Research Triangle Park, N.C.) followed by incubation for 3 min at 37° C. in the absence or presence of a peptide inhibitor. At the addition of 0.05 ml of 30 mM calcium chloride, the time to clot formation is measured in an KC4A instrument (Sigma Chemical Corp, St. Louis, Mo.) (Hasan et al. Thrombosis and Haemostasis. 82, 1182–1187 (1999)). The thrombin clotting time (TCT) is performed by adding 0.1 ml normal human citrated plasma in the absence or presence of a peptide inhibitor and 0.05 ml of a α-thrombin solution such that the final concentration of the thrombin in the entire mixture was 1 nM. Upon addition of the thrombin, the time to clot formation is measured in an KC4A instrument (Sigma Chemical Corp, St. Louis, Mo.). In FIG. 5, peptide TH146 produces a significant prolongation (p<0.05) of the activated partial thromboplastin time at 15 μM, of the prothrombin time at 60 μM, and the thrombin clotting time at 15 μM. In FIG. 6, peptide MAP4-TH146 produced a significant prolongation (p<0.05) of the activated partial thromboplastin time at 0.195 μM, of the prothrombin time at 3.125 μM, and the thrombin clotting time at 0.39 μM.

[2] = test system: normal human citrated plasma; test: thrombin clotting time (TCT); assay type: biochemical; settings: peptide at the concentration that inhibits platelet aggregation
Experimental: as §1

[3] = test system: normal human citrated plasma; test: prothrombin time (PT); assay type: biochemical; settings: peptide at the concentration that inhibits platelet aggregation
Experimental: as §1

[4] = test system: platelets in platelet-rich plasma; test: γ-thrombin-induced platelet aggregation in platelet-rich plasma; assay type: cell-based, human; settings: minimal concentration that blocked γ-thrombin-induced platelet aggregation in platelet-rich plasma
Experimental: Fresh whole blood was collected and mixed with 0.013 M sodium citrate and platelet-rich plasma was prepared according to the method of Meloni et al., J. Biol. Chem. 266, 6786 (1991). Platelet-rich plasma with a normalized platelet count between 2–2.5×10^8 platelets/ml was added to a cuvette of an aggregometer (Chronlog Corp., Havertown, Pa.), standardized using the protocol of Meloni et al., supra. Peptides to be examined were added to the cuvette and the mixture stabilized for a few moments. Once the baseline was stabilized, γ-thrombin (10–70 nM) (Haematologic Technologies, Essex Junction, Vt.) was added to determine the minimal concentration of the agonist necessary to achieve full platelet aggregation. All investigations with peptides were performed using threshold concentrations of γ-thrombin. Aggregation was allowed to proceed for 5 minutes before stopping. When ADP-induced platelet aggregation studies were performed, 1–5 μM ADP (Sigma) was added to the cuvette containing platelet-rich plasma.

[5] = test system: normal human lung fibroblasts (NHLF); test: α-thrombin-induced calcium mobilization in fibroblasts; assay type: cell-based; settings: 0.1 mM peptide; α-thrombin-induced calcium mobilization in fibroblasts
Experimental: The second assay developed to assess peptides from the combinatorial libraries uses inhibition of α-thrombin-induced calcium mobilization in fibroblasts. Normal human lung fibroblasts (NHLF) were purchased from Clonetics, San Diego, Calif., an affiliate of Bio-Wittaker, Walkersville, Md. The cytoplasmic free Ca^2+ concentration ([Ca^2+]i) was measured using the fluorescent Ca^2+ indicator fura-2 (Molecular Probes, Inc., Eugene, Oreg.). Suspension of fibroblasts in Hepes-Tyrode's buffer were loaded with fura-2 by incubation at 37° C. with 2 μM fura-2/acetoxymethyl ester for 45 minutes according to the method of Rasmussen et al., J. Biol. Chem. 268, 14322 (1993). The labeled fibroblasts were separated from excess probe by washing by centrifugation at 1000 rpm (180×g). Aliquots of the labeled fibroblasts were transferred into a quartz cuvette with a magnetic stirrer, which was then placed in a thermostatically controlled chamber at 37° C. in a fluorescence spectrophotometer (Perkin-Elmer LS50B spectrofluorometer, Chicago, Ill.). Reagents, test peptide, and α-thrombin (0.25–2 nM), were sequentially added directly to the cuvette. The excitation wavelengths varied between 340 and 380 nm. Fluorescence was measured by recording emitted light at 510 nm as reported by Fisher et al., Mol Pharm. 35, 195 (1989). The minimum emission was determined on a solubilized fibroblast sample in the presence of 10 mM EDTA; maximum emission was determined on the same sample with 10 mM Ca^2+ added. The intrafibroblast free Ca^2+ concentration was calculated by the method of Grykiewicz et al., J. Biol. Chem. 260, 3440 (1985). […] The KD for fura-2 was assumed to be 224 nM. Rmax and Rmin are the maximum and minimum fluorescence ratios measured at the end of the experiment, respectively; Sf2 and Sb2 are the fluorescence values at 380 nm in the absence and presence of saturating [Ca^2+], respectively. The reaction was monitored for 3–5 minutes.

thrombin = thrombin (Homo sapiens, UniProt P00734); settings: read-out: Ki (direct inhibitor of thrombin); cited from earlier work
[6] = test system: T1, RPPGF (Arg-Pro-Pro-Gly-Phe, SEQ ID NO:4)
[7] = test system: MAP4-RPPGF (β-Ala-Lys-2Lys-4(Arg-Pro-Pro-Gly-Phe))
[8] = test system: MAP4-rOicPGF (β-Ala-Lys-2Lys-4(D-Arg-Oic-Pro-Gly-Phe))
[9] = target: T2, recombinant protease activated receptor 1 extracellular domain (rPAR1EC); test: Inhibition of RPPGF-biotin binding to rPAR1EC; settings: 5 mM peptide, 50 μM RPPGF-biotin (FIG. 7); listed in decreasing order
[10] = target: recombinant protease activated receptor 1 extracellular domain (rPAR1EC), human PAR1 Ala26-Ser99, His10-DDDDK fusion (human) (UniProt P25116); test: cell-based or functional assay
α-thrombin = α-thrombin (Homo sapiens, UniProt P00734); test: cell-based or functional assay
PC-3 cells = test: Thrombin-induced motility of prostate cancer cells (Boyden chamber); assay type: cell-based; settings: 10 μM; 2 nM α-thrombin
Experimental: Motility assays are performed with a modified Boyden chamber (tissue culture-treated, 6.5 mm diameter, 10 μm thickness, 8 μm pores). In the motility assays, 2.5×10^4 cells are plated in the top chamber of non-coated polyethylene teraphthalate (PET) membranes (24-well insert, pore size […]; Becton Dickinson). […] RPMI 10% fetal bovine serum is used as a chemoattractant in the lower chamber. […] The cells that transverse the membranes are stained with Dip-Quick (Jorgensen Laboratories, Loveland, Colo.). Cells in five random fields of view at 200× are counted and expressed as the average number of cells/field of view. […]

[11] = target: T3, recombinant protease activated receptor …; test: cell-based or functional assay
[12] = target: human α-thrombin (human), P00734; test: cell-based or functional assay

Molecule	APTT (Fold Prolongation over RPPGF) [1]	TCT (Fold Prolongation over RPPGF) [2]	PT (Fold Prolongation over RPPGF) [3]	Concentration of Peptide [mM] That Gives 100% Inhibition [4]	Ca^2^+ % Inhibition At 0.1 mM Peptide [5]	also measured
[dR][Oic][Oic]G[2Thi] [rOicOicGThi]	1.2 Fold	1.1 Fold	1.1 Fold	0.271 mM	18.2%	–
RPPGFSPFR [Bradykinin, Arg-Pro-Pro-Gly-Phe-Ser-Pro-Phe-Arg]	–	–	–	–	–	Ki (thrombin): 170 to 326 µM
thrombocytin	–	–	–	–	–	thrombocytin (16.7 nM) hydrolysis of 1 mM H-D-Phe-Pip-Arg-paranitroanilide in the presence of 2 mM RPPGF [6]: RPPGF (SEQ ID NO:4) or MAP4-RPPGF inhibits the ability of these enzymes to hydrolyze their substrates; thrombocytin (16.7 nM) hydrolysis of 1 mM H-D-Phe-Pip-Arg-paranitroanilide in the presence of 1 mM MAP4-RPPGF [7]: RPPGF (SEQ ID NO:4) or MAP4-RPPGF inhibits the ability of these enzymes to hydrolyze their substrates; thrombocytin (16.7 nM) hydrolysis of 1 mM H-D-Phe-Pip-Arg-paranitroanilide (S2238), 0-1.0 mM MAP4-TH146 [8]: MAP4-TH146 inhibits these enzymes' ability to hydrolyze their substrates
[dR][Oic][Hyp]G[2Thi] [rOicHypGThi]	1.1 Fold	1.3 Fold	1.1 Fold	0.157 mM	38%	–
D-Arg-Oic-Hyp-Gly-Idg [TH37]	–	–	–	–	–	blocking of RPPGF-biotin binding to rPAR1EC by peptides [9]: blocked
MAP4-rOicPGF (β-Ala-Lys-2Lys-4(D-Arg-Oic-Pro-Gly-Phe)) (peptide)	–	–	–	–	–	inhibition of thrombocytin-induced cleavage of recombinant extracellular domain of human PAR1 (SDS-PAGE) [10]: 0.2 mM; concentration giving significant prolongation (p<0.05) of the APTT of normal human plasma (α-thrombin): 0.195 µM; concentration giving significant prolongation (p<0.05) of the PT of normal human plasma (α-thrombin): 3.12 µM; concentration giving significant prolongation (p<0.05) of the TCT of normal human plasma (α-thrombin): 0.39 µM
D-Arg-Oic-Hyp-Gly-Idg [rOicHypGIdg]	1.1 Fold	1.7 Fold	1.1 Fold	0.157 mM	36.7%	–
MAP4-RPPGF (β-Ala-Lys-2Lys-4(Arg-Pro-Pro-Gly-Phe)) (peptide)	–	–	–	–	–	inhibition of thrombocytin cleavage of PAR1 (rPAR1EC, SDS-PAGE) [10]: 0.2 mM and 0.5 mM
D-Arg-Oic-Oic-Gly-Idg [rOicOicGIdg]	1.1 Fold	1.1 Fold	1.1 Fold	0.257 mM	28.1%	–
D-Arg-Oic-Pro-Gly-Idg ([dR][Oic]PG[Igl]-NH2; N-terminus assumed; SMILES N=C(N)NCCC[C@@H](N)C(=O)N1[C@H](C(=O)N2CCC[C@H]2C(=O)NCC(=O)N[C@H](C(N)=O)C2Cc3ccccc3C2)C[C@@H]2CCCC[C@@H]21) [rOicPGIdg]	1.1 Fold	1.5 Fold	1.1 Fold	0.129 mM	36.2%	blocking of RPPGF-biotin binding to rPAR1EC by peptides [9]: blocked
D-Arg-Idg-Tic-Gly-Phe [rIdgTicGF]	1.0 Fold	1.2 Fold	1.1 Fold	0.1 mM	58.44%	–
hirudin [reference compound]	–	–	–	–	–	effect on thrombin-induced PC-3 cell motility (PC-3 cells): block
RPPGF (modifications not checked) [RPPGF (Arg-Pro-Pro-Gly-Phe, SEQ ID NO:4)]	–	–	–	–	–	inhibition of thrombocytin cleavage of recombinant human PAR1 extracellular domain (SDS-PAGE) [11]: 0.5 mM and 1 mM
[dR][Oic]PGF [rOicPGF (D-Arg-Oic-Pro-Gly-Phe)]	–	–	–	–	–	concentration giving significant prolongation (p<0.05) of the activated partial thromboplastin time [12]: 15 µM; concentration giving significant prolongation (p<0.05) of the prothrombin time [12]: 60 µM; concentration giving significant prolongation (p<0.05) of the thrombin clotting time [12]: 15 µM; concentration giving significant prolongation of the APTT of normal human plasma [12]: 3.7 µM; concentration giving significant prolongation of the PT of normal human plasma [12]: 30 µM; concentration giving significant prolongation of the TCT of normal human plasma [12]: 3.7 µM
